{"source": "PubChem BioAssay (NCI)", "experiment_in_all_cases": "inhibition of tumour cell growth, NCI panel, 384-well format", "key": {"COLO 205 colon": {"system": "COLO 205 colon"}, "HCT-15 colon": {"system": "HCT-15 colon"}, "HL-60(TB) leukemia": {"system": "HL-60(TB) leukemia"}, "HOP-62 NSCLC": {"system": "HOP-62 NSCLC"}, "HS 578T breast": {"system": "HS 578T breast"}, "MDA-MB-231 breast": {"system": "MDA-MB-231 breast"}, "MDA-MB-435 melanoma": {"system": "MDA-MB-435 melanoma"}, "NCI/ADR-RES ovarian": {"system": "NCI/ADR-RES ovarian"}, "OVCAR-3 ovarian": {"system": "OVCAR-3 ovarian"}, "OVCAR-5 ovarian": {"system": "OVCAR-5 ovarian"}, "SR leukemia": {"system": "SR leukemia"}, "T-47D breast": {"system": "T-47D breast"}, "UO-31 renal": {"system": "UO-31 renal"}}, "note": "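Abbreviation: GI50, concentration required for 50% inhibition of growth. TGI: total growth inhibition.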"}
{"smiles": "Cn1cc(-c2ccc(-c3cncc(Cl)c3N3CCC4(CCNC4=O)CC3)cc2)cn1", "values": [{"measurement": "GI50", "setting": "COLO 205 colon", "value": 16.3, "unit": "µM"}, {"measurement": "TGI", "setting": "COLO 205 colon", "value": "> 60", "unit": "µM"}, {"measurement": "GI50", "setting": "HCT-15 colon", "value": 14.6, "unit": "µM"}, {"measurement": "TGI", "setting": "HCT-15 colon", "value": "> 66.4", "unit": "µM"}, {"measurement": "GI50", "setting": "HL-60(TB) leukemia", "value": 1.73, "unit": "µM"}, {"measurement": "TGI", "setting": "HL-60(TB) leukemia", "value": 5.74, "unit": "µM"}, {"measurement": "GI50", "setting": "HOP-62 NSCLC", "value": 15.2, "unit": "µM"}, {"measurement": "TGI", "setting": "HOP-62 NSCLC", "value": 39.9, "unit": "µM"}, {"measurement": "GI50", "setting": "HS 578T breast", "value": 49.1, "unit": "µM"}, {"measurement": "TGI", "setting": "HS 578T breast", "value": "> 100", "unit": "µM"}, {"measurement": "GI50", "setting": "MDA-MB-231 breast", "value": 17.1, "unit": "µM"}, {"measurement": "TGI", "setting": "MDA-MB-231 breast", "value": "> 76.7", "unit": "µM"}, {"measurement": "GI50", "setting": "MDA-MB-435 melanoma", "value": 30.1, "unit": "µM"}, {"measurement": "TGI", "setting": "MDA-MB-435 melanoma", "value": "> 91.6", "unit": "µM"}, {"measurement": "GI50", "setting": "NCI/ADR-RES ovarian", "value": 22.1, "unit": "µM"}, {"measurement": "TGI", "setting": "NCI/ADR-RES ovarian", "value": "> 71.5", "unit": "µM"}, {"measurement": "GI50", "setting": "OVCAR-3 ovarian", "value": 17.3, "unit": "µM"}, {"measurement": "TGI", "setting": "OVCAR-3 ovarian", "value": 51.3, "unit": "µM"}, {"measurement": "GI50", "setting": "OVCAR-5 ovarian", "value": "> 100", "unit": "µM"}, {"measurement": "TGI", "setting": "OVCAR-5 ovarian", "value": "> 100", "unit": "µM"}, {"measurement": "TGI", "setting": "SR leukemia", "value": 0.485, "unit": "µM"}, {"measurement": "GI50", "setting": "T-47D breast", "value": 13.5, "unit": "µM"}, {"measurement": "TGI", "setting": "T-47D breast", "value": 48.4, "unit": "µM"}, {"measurement": "GI50", "setting": "UO-31 renal", "value": 26.9, "unit": "µM"}, {"measurement": "TGI", "setting": "UO-31 renal", "value": "> 100", "unit": "µM"}]}
{"smiles": "COc1ccc2c(Oc3ccc(NC(=O)c4c(C)n(CC(C)(C)O)n(-c5ccccc5)c4=O)nc3)ccnc2c1", "values": [{"measurement": "GI50", "setting": "COLO 205 colon", "value": 42.2, "unit": "µM"}, {"measurement": "TGI", "setting": "COLO 205 colon", "value": "> 100", "unit": "µM"}, {"measurement": "GI50", "setting": "HCT-15 colon", "value": 6.05, "unit": "µM"}, {"measurement": "TGI", "setting": "HCT-15 colon", "value": "> 100", "unit": "µM"}, {"measurement": "GI50", "setting": "HL-60(TB) leukemia", "value": 5.49, "unit": "µM"}, {"measurement": "TGI", "setting": "HL-60(TB) leukemia", "value": 14.9, "unit": "µM"}, {"measurement": "GI50", "setting": "HOP-62 NSCLC", "value": 15.3, "unit": "µM"}, {"measurement": "TGI", "setting": "HOP-62 NSCLC", "value": "> 100", "unit": "µM"}, {"measurement": "GI50", "setting": "HS 578T breast", "value": 4.65, "unit": "µM"}, {"measurement": "TGI", "setting": "HS 578T breast", "value": 34.6, "unit": "µM"}, {"measurement": "GI50", "setting": "MDA-MB-231 breast", "value": 9.28, "unit": "µM"}, {"measurement": "TGI", "setting": "MDA-MB-231 breast", "value": 29.1, "unit": "µM"}, {"measurement": "GI50", "setting": "MDA-MB-435 melanoma", "value": 12.3, "unit": "µM"}, {"measurement": "TGI", "setting": "MDA-MB-435 melanoma", "value": 53.7, "unit": "µM"}, {"measurement": "GI50", "setting": "NCI/ADR-RES ovarian", "value": 25.7, "unit": "µM"}, {"measurement": "TGI", "setting": "NCI/ADR-RES ovarian", "value": "> 100", "unit": "µM"}, {"measurement": "GI50", "setting": "OVCAR-3 ovarian", "value": 13, "unit": "µM"}, {"measurement": "TGI", "setting": "OVCAR-3 ovarian", "value": 31.6, "unit": "µM"}, {"measurement": "GI50", "setting": "OVCAR-5 ovarian", "value": 37.8, "unit": "µM"}, {"measurement": "TGI", "setting": "OVCAR-5 ovarian", "value": "> 100", "unit": "µM"}, {"measurement": "GI50", "setting": "SR leukemia", "value": 6.58, "unit": "µM"}, {"measurement": "TGI", "setting": "SR leukemia", "value": 19, "unit": "µM"}, {"measurement": "GI50", "setting": "T-47D breast", "value": 33.7, "unit": "µM"}, {"measurement": "TGI", "setting": "T-47D breast", "value": "> 100", "unit": "µM"}, {"measurement": "GI50", "setting": "UO-31 renal", "value": 18.4, "unit": "µM"}, {"measurement": "TGI", "setting": "UO-31 renal", "value": "> 100", "unit": "µM"}]}
